Results as given in PubChem BioAssay (NCI).
“And” between values parts separate entries of the source, which are not always exact repeats. Identical values can stand only once.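 In this assay, cells in 96-well plates receive the compound at five concentrations for 48 hours. Endpoints are linearly interpolated between the surrounding concentrations. Abbreviation: GI50, concentration required for 50% inhibition of growth. TGI marks complete inhibition of growth.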

Key:
Assay in all cases: NCI anticancer screen, dose series, 48 h
HCT-116 colon = tested on: HCT-116 colon
NCI-H522 lung = tested on: NCI-H522 lung
CCRF-CEM leukemia = tested on: CCRF-CEM leukemia
SNB-75 CNS = tested on: SNB-75 CNS
SW-620 colon = tested on: SW-620 colon
OVCAR-5 ovarian = tested on: OVCAR-5 ovarian
PC-3 prostate = tested on: PC-3 prostate
SF-295 CNS = tested on: SF-295 CNS
M14 melanoma = tested on: M14 melanoma
CAKI-1 renal = tested on: CAKI-1 renal

With `CC1=CC(=O)C=CC1=O` the GI50 (HCT-116 colon) was 14.8 µM and 2.97 µM, the TGI (HCT-116 colon) was 29.8 µM and the GI50 (NCI-H522 lung) was 11.2 µM and 1.67 µM. The TGI (NCI-H522 lung) was 24 µM and 4.1 µM, the GI50 (CCRF-CEM leukemia) was 2.73 µM and the TGI (CCRF-CEM leukemia) was 10.5 µM. The GI50 (SNB-75 CNS) was 3.02 µM and 11.5 µM, the TGI (SNB-75 CNS) was 24.8 µM and the GI50 (SW-620 colon) was 5.31 µM. For the same compound, the TGI (SW-620 colon) was 20.8 µM, the GI50 (OVCAR-5 ovarian) was 21.4 µM and the TGI (OVCAR-5 ovarian) was 39.5 µM. For the same compound, the GI50 (PC-3 prostate) was 15.7 µM, the TGI (PC-3 prostate) was 39.4 µM and the GI50 (SF-295 CNS) was 50.3 µM and 22.7 µM. The TGI (SF-295 CNS) was 64.3 µM, the GI50 (M14 melanoma) was 22.7 µM and 20.5 µM and the TGI (M14 melanoma) was 67.1 µM and 48.5 µM. The GI50 (CAKI-1 renal) was 15.1 µM and 15.3 µM and the TGI (CAKI-1 renal) was 28.4 µM and 29.8 µM.
`COc1ccc(-c2[nH]c3ccc(OC)cc3c2/C=C(\C#N)S(=O)(=O)c2ccccc2)cc1` gave a GI50 (HCT-116 colon) of 0.53 µM, a TGI (HCT-116 colon) greater than 100 µM and a GI50 (NCI-H522 lung) of 1.58 µM. It also gave a TGI (NCI-H522 lung) greater than 20.7 µM, a GI50 (CCRF-CEM leukemia) of 0.894 µM and a TGI (CCRF-CEM leukemia) of 6.19 µM. For the same compound, the GI50 (SNB-75 CNS) was 0.561 µM, the TGI (SNB-75 CNS) was 45.5 µM and the GI50 (SW-620 colon) was 0.534 µM. It also gave a TGI (SW-620 colon) greater than 100 µM, a GI50 (OVCAR-5 ovarian) of 3.85 µM and a TGI (OVCAR-5 ovarian) greater than 100 µM. The GI50 (PC-3 prostate) was 0.533 µM, the TGI (PC-3 prostate) was 23.6 µM and the GI50 (SF-295 CNS) was 0.709 µM. For the same compound, the TGI (SF-295 CNS) was greater than 23.9 µM, the GI50 (M14 melanoma) was 0.494 µM and the TGI (M14 melanoma) was 18.2 µM. The GI50 (CAKI-1 renal) was 4.22 µM and the TGI (CAKI-1 renal) was greater than 100 µM.
With `CCc1nc2cc(F)c(/C=C/C(=O)NO)cc2c(=O)n1CCc1ccccc1` the GI50 (HCT-116 colon) was 0.313 µM, the TGI (HCT-116 colon) was 11 µM and the GI50 (NCI-H522 lung) was 0.171 µM. The TGI (NCI-H522 lung) was 0.392 µM, the GI50 (CCRF-CEM leukemia) was 0.4 µM and the TGI (CCRF-CEM leukemia) was greater than 100 µM. For the same compound, the GI50 (SNB-75 CNS) was 0.356 µM, the TGI (SNB-75 CNS) was 13.8 µM and the GI50 (SW-620 colon) was 0.336 µM. The TGI (SW-620 colon) was 12.1 µM, the GI50 (OVCAR-5 ovarian) was 0.402 µM and the TGI (OVCAR-5 ovarian) was 17.6 µM. The GI50 (PC-3 prostate) was 0.526 µM, the TGI (PC-3 prostate) was 59.4 µM and the GI50 (SF-295 CNS) was 0.234 µM. It also gave a TGI (SF-295 CNS) of 0.617 µM, a GI50 (M14 melanoma) of 0.355 µM and a TGI (M14 melanoma) of 4.78 µM. It also gave a GI50 (CAKI-1 renal) of 0.305 µM and a TGI (CAKI-1 renal) of 3.12 µM.
For `COc1cc2c3c(n(CCCN)c(=O)c2cc1OC)-c1ccc(C#N)cc1C3=O`, the GI50 (HCT-116 colon) was 15.8 µM, the TGI (HCT-116 colon) was 32.3 µM and the GI50 (NCI-H522 lung) was 9.61 µM. The TGI (NCI-H522 lung) was greater than 100 µM, the GI50 (CCRF-CEM leukemia) was 6.44 µM and the TGI (CCRF-CEM leukemia) was 31.7 µM. For the same compound, the GI50 (SNB-75 CNS) was 0.562 µM, the TGI (SNB-75 CNS) was 16.1 µM and the GI50 (SW-620 colon) was 11 µM. The TGI (SW-620 colon) was 30.6 µM, the GI50 (OVCAR-5 ovarian) was 18 µM and the TGI (OVCAR-5 ovarian) was 33.2 µM. The GI50 (PC-3 prostate) was 15 µM, the TGI (PC-3 prostate) was 36.5 µM and the GI50 (SF-295 CNS) was 11.1 µM. For the same compound, the TGI (SF-295 CNS) was 33.6 µM, the GI50 (M14 melanoma) was 15.3 µM and the TGI (M14 melanoma) was 31.6 µM. The GI50 (CAKI-1 renal) was 34.9 µM and the TGI (CAKI-1 renal) was greater than 100 µM.
`Cc1ccc(NC(=O)c2cccc(C(C)(C)C#N)c2)cc1Nc1ccc2ncn(C)c(=O)c2c1` gave a GI50 (HCT-116 colon) of 0.1 µM, a TGI (HCT-116 colon) greater than 100 µM and a GI50 (NCI-H522 lung) of 3.88 µM. For the same compound, the TGI (NCI-H522 lung) was greater than 100 µM, the GI50 (CCRF-CEM leukemia) was 5.36 µM and the TGI (CCRF-CEM leukemia) was greater than 100 µM. For the same compound, the GI50 (SNB-75 CNS) was 12.7 µM, the TGI (SNB-75 CNS) was greater than 100 µM and the GI50 (SW-620 colon) was 1.01 µM. For the same compound, the TGI (SW-620 colon) was greater than 100 µM, the GI50 (OVCAR-5 ovarian) was 0.123 µM and the TGI (OVCAR-5 ovarian) was greater than 100 µM. For the same compound, the GI50 (PC-3 prostate) was 25.9 µM, the TGI (PC-3 prostate) was greater than 100 µM and the GI50 (SF-295 CNS) was 6.99 µM. It also gave a TGI (SF-295 CNS) greater than 100 µM, a GI50 (M14 melanoma) of 0.019 µM and a GI50 (CAKI-1 renal) of 2.96 µM. It also gave a TGI (CAKI-1 renal) greater than 100 µM.
With `N#Cc1cc(-c2cc3ccccc3o2)oc1N` the GI50 (HCT-116 colon) was 3.65 µM, the TGI (HCT-116 colon) was 12.2 µM and the GI50 (NCI-H522 lung) was 2.41 µM. For the same compound, the TGI (NCI-H522 lung) was 12.6 µM, the GI50 (CCRF-CEM leukemia) was 3.72 µM and the TGI (CCRF-CEM leukemia) was 21.2 µM. The GI50 (SNB-75 CNS) was 3.61 µM, the TGI (SNB-75 CNS) was 15.5 µM and the GI50 (SW-620 colon) was 3.98 µM. It also gave a TGI (SW-620 colon) of 14.8 µM, a GI50 (OVCAR-5 ovarian) of 4.34 µM and a TGI (OVCAR-5 ovarian) of 30.6 µM. For the same compound, the GI50 (PC-3 prostate) was 2.73 µM, the TGI (PC-3 prostate) was 6.85 µM and the GI50 (SF-295 CNS) was 2.22 µM. The TGI (SF-295 CNS) was 4.97 µM, the GI50 (M14 melanoma) was 6.11 µM and the TGI (M14 melanoma) was 22 µM. It also gave a GI50 (CAKI-1 renal) of 1.65 µM and a TGI (CAKI-1 renal) of 5.48 µM.
Work on `CCc1nc(N)nc(N)c1-c1ccc(NC)c([N+](=O)[O-])c1` yielded a TGI (HCT-116 colon) greater than 100 µM, a TGI (NCI-H522 lung) greater than 57.2 µM and a TGI (CCRF-CEM leukemia) greater than 41.8 µM. The TGI (SNB-75 CNS) was greater than 100 µM, the TGI (SW-620 colon) was greater than 100 µM and the TGI (OVCAR-5 ovarian) was greater than 100 µM. For the same compound, the TGI (PC-3 prostate) was greater than 100 µM, the TGI (SF-295 CNS) was greater than 94.7 µM and the TGI (M14 melanoma) was greater than 100 µM. For the same compound, the TGI (CAKI-1 renal) was greater than 79 µM.
Work on `CN1CCN(CCCNc2nc3ccc(Oc4ccc(NC(=O)Nc5cc(C(F)(F)F)ccc5F)cc4)cc3[nH]2)CC1` yielded a GI50 (HCT-116 colon) of 4.28 µM, a TGI (HCT-116 colon) of 7.99 µM and a GI50 (NCI-H522 lung) of 3.8 µM. It also gave a TGI (NCI-H522 lung) of 7.27 µM, a GI50 (CCRF-CEM leukemia) of 4.96 µM and a TGI (CCRF-CEM leukemia) of 10.8 µM. The GI50 (SNB-75 CNS) was 5.14 µM, the TGI (SNB-75 CNS) was 13.2 µM and the GI50 (SW-620 colon) was 4.35 µM. It also gave a TGI (SW-620 colon) of 7.79 µM, a GI50 (OVCAR-5 ovarian) of 6.75 µM and a TGI (OVCAR-5 ovarian) greater than 20.7 µM. It also gave a GI50 (PC-3 prostate) of 4.82 µM, a TGI (PC-3 prostate) of 10.6 µM and a GI50 (SF-295 CNS) of 3.67 µM. For the same compound, the TGI (SF-295 CNS) was 7.98 µM, the GI50 (M14 melanoma) was 4.54 µM and the TGI (M14 melanoma) was 8.61 µM. The GI50 (CAKI-1 renal) was greater than 25 µM and the TGI (CAKI-1 renal) was greater than 25 µM.
`Nc1ccccc1C#C/C=C\C#Cc1ccccc1N` gave a GI50 (HCT-116 colon) of 4.15 µM, a TGI (HCT-116 colon) of 19.1 µM and a GI50 (NCI-H522 lung) of 16.3 µM. The TGI (NCI-H522 lung) was 44.5 µM, the GI50 (CCRF-CEM leukemia) was 3.93 µM and the TGI (CCRF-CEM leukemia) was 32.4 µM. For the same compound, the GI50 (SNB-75 CNS) was 29.4 µM, the TGI (SNB-75 CNS) was greater than 100 µM and the GI50 (SW-620 colon) was 2.91 µM. It also gave a TGI (SW-620 colon) of 18.4 µM, a GI50 (OVCAR-5 ovarian) of 10.9 µM and a TGI (OVCAR-5 ovarian) of 40.7 µM. The GI50 (PC-3 prostate) was 7.39 µM, the TGI (PC-3 prostate) was 29.1 µM and the GI50 (SF-295 CNS) was 7.71 µM. For the same compound, the TGI (SF-295 CNS) was 25.4 µM, the GI50 (M14 melanoma) was 5.04 µM and the TGI (M14 melanoma) was 22.7 µM. It also gave a GI50 (CAKI-1 renal) of 6.86 µM and a TGI (CAKI-1 renal) of 39 µM.
`COc1ccc2[nH]c3c4[nH]c5ccc(OC)cc5c4c4c(c3c2c1)C(=O)NC4=O` gave a GI50 (HCT-116 colon) greater than 11 µM, a TGI (HCT-116 colon) greater than 25 µM and a GI50 (NCI-H522 lung) of 2.32 µM. For the same compound, the TGI (NCI-H522 lung) was greater than 25 µM, the GI50 (CCRF-CEM leukemia) was 0.757 µM and the TGI (CCRF-CEM leukemia) was greater than 25 µM. It also gave a GI50 (SNB-75 CNS) greater than 13.2 µM, a TGI (SNB-75 CNS) greater than 25 µM and a GI50 (SW-620 colon) greater than 25 µM. The TGI (SW-620 colon) was greater than 25 µM, the GI50 (OVCAR-5 ovarian) was greater than 25 µM and the TGI (OVCAR-5 ovarian) was greater than 25 µM. It also gave a GI50 (PC-3 prostate) greater than 15.7 µM, a TGI (PC-3 prostate) greater than 25 µM and a GI50 (SF-295 CNS) greater than 15.7 µM. The TGI (SF-295 CNS) was greater than 25 µM, the GI50 (M14 melanoma) was greater than 13.1 µM and the TGI (M14 melanoma) was greater than 25 µM. For the same compound, the GI50 (CAKI-1 renal) was 1.77 µM and the TGI (CAKI-1 renal) was greater than 25 µM.
